Laboratory results from patent US20240317727A1 (Duke University, priority 2018, published 2024).

The compounds below were run against T1, recombinant HSF1 DNA-binding domain (DBD) (Homo sapiens, UniProt Q00613) (assay: Differential Scanning Fluorimetry (DSF), HSF1 DBD melting temperature). Conditions: Table 1; 5 μM HSF1 DBD, 25PM Compound; positive = stabilizes, negative = destabilizes HSF1.
T1 sequence (Q00613 15-120): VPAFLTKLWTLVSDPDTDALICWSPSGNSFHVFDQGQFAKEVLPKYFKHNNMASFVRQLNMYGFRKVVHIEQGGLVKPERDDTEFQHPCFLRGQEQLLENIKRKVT

| Compound | ΔTm at 25 µM [°C] | ΔTm |
| --- | --- | --- |
| O=C(Nc1ccc(Cl)cc1)Nc1ccc(Cl)c(Cl)c1 [Compound 0001] | 4.78 |  |
| O=c1c(Nc2ccc(F)cc2)c(Nc2ccc(Cl)c([N+](=O)[O-])c2)c1=O [Compound 0002, 3-(4-chloro-3-nitro-anilino)-4-(4-fluoroanilino)cyclobut-3-ene-1,2-dione] | 1.9 |  |
| Cc1ccc(CNC(=O)CSc2nnc(-c3cccc(N)c3)n2-c2ccccc2)cc1 [Compound 0004] | -9.46 |  |
| O=[N+]([O-])c1cc(C(F)(F)F)cc([N+](=O)[O-])c1O/N=C1\CSCc2ccccc21 [Compound 0008] | -4.56 |  |
| O=C(N/C=C/c1ccsc1)Nc1cc(Cl)ccc1F [Compound 0010] | 5.43 |  |
| O=[N+]([O-])c1cc(C(F)(F)F)cc([N+](=O)[O-])c1Oc1ccc(F)cc1F [Compound 0012] | -4.73 |  |
| COC(=O)c1cc(C#N)c(Sc2c([N+](=O)[O-])cc(C(F)(F)F)cc2[N+](=O)[O-])nc1C(OC)OC [Compound 0013] | -7.4 |  |
| Cn1ncc(S(=O)(=O)Cc2ccccc2)c(Cl)c1=O [Compound 0014] | -4.56 |  |
| O=c1c(Nc2ccc(F)c(F)c2)c(Nc2ccc(Cl)c(S(=O)(=O)C(F)(F)F)c2)c1=O [Compound 0016, 3-[4-chloro-3-(trifluoromethylsulfonyl)anilino]-4-(3,4-difluoroanilino)cyclobut-3-ene-1,2-dione] | 2.75 |  |
| CCOC(=O)c1c(Cl)c2ccccc2oc1=O [Compound 0021] | -9.19 |  |
| CN(C(=O)Nc1ccc(Cl)c([N+](=O)[O-])c1)c1ccc(F)cc1 [Compound 0023, 3-(4-chloro-3-nitro-phenyl)-1-(4-fluorophenyl)-1-methyl-urea] | 0.67 |  |
| Cc1ccc(CNC(=O)CSc2nnc(-c3ccc(C)cc3)n2-c2ccccc2)cc1 [Compound 0025] | -9.21 |  |
| O=C(Nc1cccnc1)c1cc2c(s1)-c1ccccc1CC2 [Compound 0028] | -9.69 |  |
| O=C(CSc1nnc(-c2ccncc2)n1-c1ccccc1)N/N=C/c1cccnc1 [Compound 0029] | -8.96 |  |
| Cc1ccc(-n2c(SCC(=O)NC(C)c3ccccc3)nnc2-c2ccccc2)cc1 (stereo not drawn) [Compound 0030] | -8.57 |  |
| CSc1nnc(SC2=CC(=O)CC(c3ccccc3)C2)s1 (stereo not drawn) [Compound 0031] | -6.23 |  |
| N=C(Nc1ccc(F)cc1)Nc1ccc(Cl)c(C(F)(F)F)c1 [Compound 0032, 1-[4-chloro-3-(trifluoromethyl)phenyl]-3-(4-fluorophenyl)guanidine] | 0.75 |  |
| O=S1(=O)N=C(Nc2ccc(F)cc2)C(Nc2ccc(Cl)c(C(F)(F)F)c2)=N1 [Compound 0033, N3-[4-chloro-3-(trifluoromethyl)phenyl]-N4-(4-fluorophenyl)-1,1-dioxo-1,2,5-thiadiazole-3,4-diamine] | 1.9 |  |
| O=C(N/N=C/c1cccnc1)c1ccc(=O)[nH]n1 [Compound 0037] | -9.74 |  |
| O=[N+]([O-])c1cc(/C=N/Nc2ccc(Br)c(Cl)c2)cs1 [Compound 0038] | 7.27 |  |
| Cc1cc(N)c2ccccc2c1O [Compound 0039] | -4.28 |  |
| Cc1cc(C(C#N)c2ccc(Cl)cc2)c(Cl)cc1NC(=O)c1cc(I)cc(I)c1O (stereo not drawn) [Compound 0040] | -7.95 |  |
| CC(=O)NC1C(O)OC(OS(=O)(=O)O)C(O)C1OC1CC(C(=O)O)C(O)C(O)C1O (stereo not drawn) [Compound 0041] | -3.11 |  |
| CC1CC(=O)Oc2cc(Oc3c([N+](=O)[O-])cc(C(F)(F)F)cc3[N+](=O)[O-])ccc21 (stereo not drawn) [Compound 0042] | -6.23 |  |
| CCOC(=O)N1CCN(C2=Nc3cc(Cl)ccc3C(C)C2)CC1 (stereo not drawn) [Compound 0043] | -9.07 |  |
| O=C(Nc1cccc(Cl)c1)O/N=C/c1ccc(F)cc1 [Compound 0045] |  | −8.21 |

The next lines start with results.

| ΔTm at 25 µM [°C] | Compound | ΔTm |
| --- | --- | --- |
| 1.78 | O=C(Nc1ccc(F)cc1)Nc1cccc(C(F)(F)F)c1 [Compound 0003, 1-(4-fluorophenyl)-3-(3-(trifluoromethyl)phenyl)urea] |  |
| 2.61 | COc1ccc(NC(=O)Nc2ccc(C)cc2)cc1 [Compound 0011, 1-(4-methoxyphenyl)-3-(p-tolyl)urea] |  |
| 3.44 | Oc1ccccc1/C=N/NC(=S)Nc1cccc(Cl)c1 [Compound 0015] |  |
| 2.44 | O=C(Nc1ccc(Cl)cc1)Nc1ccc(Cl)cc1 [Compound 0018, 1,3-bis(4-chlorophenyl)urea] |  |
| 5.2 | O=C(Nc1cccc(F)c1)Nc1ccc(Cl)c([N+](=O)[O-])c1 [Compound 0020, 1-(4-chloro-3-nitrophenyl)-3-(3-fluorophenyl)urea] |  |
| 2.78 | O=C(Nc1ccccc1)Nc1ccc(Cl)c(Cl)c1 [Compound 0022, 1-(3,4-dichlorophenyl)-3-phenylurea] |  |
| 4.44 | Oc1ccc(Cl)cc1/C=N/Nc1cccc(C(F)(F)F)c1 [Compound 0024] |  |
| 5.75 | Cc1cccc(NC(=O)Nc2ccc(Cl)c([N+](=O)[O-])c2)c1 [Compound 0026, 1-(4-chloro-3-nitrophenyl)-3-(m-tolyl)urea] |  |
| 2.8 | O=C(Nc1ccc(F)cc1)Nc1ccc2nonc2c1 [Compound 0027, 1-(2,1,3-benzoxadiazol-5-yl)-3-(4-fluorophenyl)urea] |  |
| 5.7 | O=C(Nc1ccc(F)c(F)c1)Nc1ccc(Cl)c([N+](=O)[O-])c1 [Compound 0034, 1-(4-chloro-3-nitrophenyl)-3-(3,4-difluorophenyl)urea] |  |
| 6.44 | O=C(Nc1cccc(C(F)(F)F)c1)Nc1ccc2nonc2c1 [Compound 0035] |  |
| 2.61 | COc1ccc(NC(=O)Nc2ccc(Cl)cc2)cc1 [Compound 0036, 1-(4-chlorophenyl)-3-(4-methoxyphenyl)urea] |  |
| 2.33 | O=C(Nc1ccc(Cl)c(Cl)c1)Nc1ccc(Cl)c([N+](=O)[O-])c1 [Compound 0044, 1-(4-chloro-3-nitrophenyl)-3-(3,4-dichlorophenyl)urea] |  |
| 4.3 | Cc1ccc(NC(=O)Nc2ccc(Cl)c([N+](=O)[O-])c2)cc1 [Compound 0046, 1-(4-chloro-3-nitrophenyl)-3-(p-tolyl)urea] |  |
| 0.75 | N#CN=C(Nc1ccc(F)cc1)Nc1ccc(Cl)c([N+](=O)[O-])c1 [Compound 0047, 1-(4-chloro-3-nitro-phenyl)-2-cyano-3-(4-fluorophenyl)guanidine] |  |

Same assay, conditions: Table 3; 5 μM HSF1 DBD, 25PM Compound; positive = stabilizes, negative = destabilizes HSF1

| Compound | ΔTm at 25 µM [°C] |
| --- | --- |
| O=c1c(Nc2ccc(F)cc2)c(Nc2ccc(Cl)c([N+](=O)[O-])c2)c1=O [Compound 002, 3-(4-chloro-3-nitro-anilino)-4-(4-fluoroanilino)cyclobut-3-ene-1,2-dione] | 1.9 |
| O=c1c(Nc2ccc(F)c(F)c2)c(Nc2ccc(Cl)c(S(=O)(=O)C(F)(F)F)c2)c1=O [Compound 016, 3-[4-chloro-3-(trifluoromethylsulfonyl)anilino]-4-(3,4-difluoroanilino)cyclobut-3-ene-1,2-dione] | 2.75 |
| O=C(Nc1ccc(F)cc1)Nc1ccc(Cl)c([N+](=O)[O-])c1 [Compound 017, 1-(4-chloro-3-nitrophenyl)-3-(4-fluorophenyl)urea] | 3 |
| CN(C(=O)Nc1ccc(Cl)c([N+](=O)[O-])c1)c1ccc(F)cc1 [Compound 023, 3-(4-chloro-3-nitro-phenyl)-1-(4-fluorophenyl)-1-methyl-urea] | 0.67 |
| N=C(Nc1ccc(F)cc1)Nc1ccc(Cl)c(C(F)(F)F)c1 [Compound 032, 1-[4-chloro-3-(trifluoromethyl)phenyl]-3-(4-fluorophenyl)guanidine] | 0.75 |
| O=S1(=O)N=C(Nc2ccc(F)cc2)C(Nc2ccc(Cl)c(C(F)(F)F)c2)=N1 [Compound 033, N3-[4-chloro-3-(trifluoromethyl)phenyl]-N4-(4-fluorophenyl)-1,1-dioxo-1,2,5-thiadiazole-3,4-diamine] | 1.9 |

Next, values leading:

| ΔTm at 25 µM [°C] | Compound |
| --- | --- |
| 1.78 | O=C(Nc1ccc(F)cc1)Nc1cccc(C(F)(F)F)c1 [Compound 003, 1-(4-fluorophenyl)-3-(3-(trifluoromethyl)phenyl)urea] |
| 5.1 | O=C(Nc1ccc(F)cc1)Nc1ccc(Br)c(C(F)(F)F)c1 [Compound 005, 1-(4-bromo-3-(trifluoromethyl)phenyl)-3-(4-fluorophenyl)urea] |
| 2.5 | Cc1cccc(NC(=O)Nc2cccc(Cl)c2)c1 [Compound 006, 1-(3-chlorophenyl)-3-(m-tolyl)urea] |
| 2.61 | COc1ccc(NC(=O)Nc2ccc(C)cc2)cc1 [Compound 011, 1-(4-methoxyphenyl)-3-(p-tolyl)urea] |
| 2.44 | O=C(Nc1ccc(Cl)cc1)Nc1ccc(Cl)cc1 [Compound 018, 1,3-bis(4-chlorophenyl)urea] |
| 5.2 | O=C(Nc1cccc(F)c1)Nc1ccc(Cl)c([N+](=O)[O-])c1 [Compound 020, 1-(4-chloro-3-nitrophenyl)-3-(3-fluorophenyl)urea] |
| 2.78 | O=C(Nc1ccccc1)Nc1ccc(Cl)c(Cl)c1 [Compound 022, 1-(3,4-dichlorophenyl)-3-phenylurea] |
| 5.75 | Cc1cccc(NC(=O)Nc2ccc(Cl)c([N+](=O)[O-])c2)c1 [Compound 026, 1-(4-chloro-3-nitrophenyl)-3-(m-tolyl)urea] |
| 2.8 | O=C(Nc1ccc(F)cc1)Nc1ccc2nonc2c1 [Compound 027, 1-(2,1,3-benzoxadiazol-5-yl)-3-(4-fluorophenyl)urea] |
| 5.7 | O=C(Nc1ccc(F)c(F)c1)Nc1ccc(Cl)c([N+](=O)[O-])c1 [Compound 034, 1-(4-chloro-3-nitrophenyl)-3-(3,4-difluorophenyl)urea] |
| 2.61 | COc1ccc(NC(=O)Nc2ccc(Cl)cc2)cc1 [Compound 036, 1-(4-chlorophenyl)-3-(4-methoxyphenyl)urea] |
| 2.33 | O=C(Nc1ccc(Cl)c(Cl)c1)Nc1ccc(Cl)c([N+](=O)[O-])c1 [Compound 044, 1-(4-chloro-3-nitrophenyl)-3-(3,4-dichlorophenyl)urea] |
| 4.3 | Cc1ccc(NC(=O)Nc2ccc(Cl)c([N+](=O)[O-])c2)cc1 [Compound 046, 1-(4-chloro-3-nitrophenyl)-3-(p-tolyl)urea] |
